Entries after “also recorded” stand apart in the source; their conditions may differ.
System: placental blood CD34+ cells amplified ex vivo
Test: Preservation at +4° C. of ex vivo amplified placental blood CD34+ cells (TNC viability and clonogenic CFC/CFU yield)
Format: cell-based, human
Details: for preserving of the functionality (clonogenicity) of amplified cells: cells stored at +4° C.
Description: The cells, after ex vivo expansion, are more fragile than the original CD34+ cells, and the maintaining thereof is most critical at +4° C. (Duchez et al, 2013, supra).
Throughout all the studies leading to the formulation of the biological preserving medium, the assays were conducted on placental blood CD34+ cells derived from a bank with storage at −196° C. Each assay was performed on one 1 or more samples.
The placental blood CD34+ cells were isolated with an immunomagnetic system, then frozen and banked at −196° C.
After thawing, the placental blood CD34+ cells (20000/ml) were placed in culture in HP01 medium in the presence of SCF (Stem Cell Factor) 100 ng/ml, Flt3 (FMS-like tyrosine kinase-3) 100 ng/ml, G-CSF (Granulocyte Colony Stimulating Factor) 10 ng/ml, and thrombopoietin (TPO) 20 ng/ml at 37° C., 5% CO2 and 85% humidity. At mid-culture, the addition was made of HP01 culture medium with the cytokines (1/5 dilution) and culture continued up to 9 to 12 days (generally 10 days).
After culture, 2.5 ml of cell suspension were transferred to 2.5 ml gas-impermeable polypropylene tubes and centrifuged at 430 g for 10 minutes at 18° C. The supernatant was fully removed (with about 50 μl of supernatant remaining on the cell residue). Then, 2.45 ml of preserving medium to be assayed (at ambient temperature) were added to the tube and the tube sealed with the stopper; the cells being replaced in suspension with successive upturning movements. The samples were left at ambient temperature for 1 to 3 hours. Finally, the tubes were placed flat at +4° C. for times generally of 48 h to 72 h. Assays were also conducted in gas-permeable PVC pouches for comparative studies and in gas-impermeable EVA pouches.
Analyses were performed on the amplified cells: counting and viability of TNCs (Total Nucleated Cells), clonogenic assays, sometimes with counting and viability of CD34+ cells. After the period at +4° C. for the defined times (48 h and 72 h), the cell samples were assayed: counting and viability of TNCs and clonogenic assays (at times also counting and viability of CD34+ cells).
The quantity of viable total nucleated cells remaining after storage at 4° C. was compared with the quantity of viable total nucleated cells at the end of culture, to obtain a recovery yield of viable cells. Similarly, the yield of CFCs (Colony Forming Cells) was calculated. The values obtained were used to evaluate the advantage of one or more compounds in the formulation and to identify the optimal concentration of these compounds. The values were compared with those obtained with the HP02 preserving medium (Duchez et al, 2013, supra).

| Structure (SMILES) | preserving of the functionality (clonogenicity) of amplified cells | action throughout the assays on preservation of amplified cells (readout not further specified) (stored at +4° C.) |
| --- | --- | --- |
| CC1=C(/C=C/C(C)=C/C=C/C(C)=C/CO)C(C)(C)CCC1 [vitamin A, Retinol] | lesser action | – |
| Cc1c(C)c2c(c(C)c1O)CC[C@@](C)(CCC[C@H](C)CCC[C@H](C)CCCC(C)C)O2 [vitamin E, Alpha-tocopherol] | the greatest action; also recorded: the most important action | effect close to or identical to the effect of Cernevit® |
| O=C1O[C@H]([C@@H](O)CO)C(O)=C1O [vitamin C, Ascorbic acid] | lesser action | – |

— patent US11589575B2, “Injectable preserving medium for preserving cells from placental blood, from bone marrow and from peripheral blood” (ETABLISSEMENT FRANCAIS DU SANG, priority 2015, dated 2023)
